Source: patent publication US7375083B2, “Pharmaceutical compositions for prevention of overdose or abuse” (Shire LLC, priority 2003, dated 2008)
Several values for one entry are separate records, joined by “and”; a condition that tells them apart may be missing. Equal values may be shown once. Read-outs that look alike come from different tables or passages of the source.

Experiments:
[1] = Crossover pharmacokinetics in dogs, oral vs 30-min intravenous infusion, LC-MS/MS; format: in vivo, male beagle dogs; settings: for AUC(0-inf): read-out: AUC(inf) of L-lysine-d-amphetamine; for Cmax: read-out: Cmax of L-lysine-d-amphetamine; for MRT: read-out: MRT of L-lysine-d-amphetamine; for Vd: read-out: Vss of L-lysine-d-amphetamine; for half-life: read-out: t1/2 of L-lysine-d-amphetamine (converted)
Text: This was a non-randomized, two-treatment crossover study. All animals were maintained on their normal diet and were fasted overnight prior to each dose administration. L-lysine-d-amphetamine dose was based on the body weight measured on the morning of each dosing day. The actual dose delivered was based on syringe weight before and after dosing. Serial blood samples were obtained from each animal by direct venipuncture of a jugular vein using vacutainer tubes containing sodium heparin as the anticoagulant. Derived plasma samples were stored frozen until shipment to the Quest Pharmaceutical Services, Inc. (Newark, Del.). Pharmacokinetic analysis of the plasma assay results was conducted by Calvert. Animals were treated as follows:
Oral: The test article was administered to each animal via a single oral gavage. On Day 1, animals received the oral dose by gavage using an esophageal tube attached to a syringe. Dosing tubes were flushed with approximately 20 mL tap water to ensure the required dosing solution was delivered.
Intravenous: On Day 8, animals received L-lysine-d-amphetamine as a single 30-minute intravenous infusion into a cephalic vein.
Blood: Serial blood samples (2 mL) were collected using venipuncture tubes containing sodium heparin. Blood samples were taken at 0, 0.25, 0.5, 1, 2, 4, 8, 12, 24, 48, and 72 hours post-oral dosing. […] Collected blood samples were chilled immediately.
Plasma: Plasma samples were obtained by centrifugation of blood samples. Duplicate plasma samples (about 0.2 mL each) were transferred into prelabeled plastic vials and stored frozen at approximately −70° C.
Microsoft Excel (Version 6, Microsoft Corp., Redmond, Wash.) was used for calculation of mean plasma concentration and graphing of the plasma concentration-time data. Pharmacokinetic analysis (non-compartmental) was performed using the WinNonlin® software program (Version 4.1, Pharsight, Inc. Mountain View, Calif.). The maximum concentration, Cmax, and the time to Cmax, Tmax, were observed values. The area under the plasma concentration-time curve (AUC) was determined using linear-log trapezoidal rules. The apparent terminal rate constant (λz) was derived using linear least-squares regression with visual inspection of the data to determine the appropriate number of points (minimum of 3 data points) for calculating λz. The AUC(0-inf) was calculated as the sum of AUC(0-t) and Cpred/λz, where Cpred was the predicted concentration at the time of the last quantifiable concentration. The plasma clearance (CL/F) was determined as the ratio of Dose/AUC (0-inf). The mean residence time (MRT) was calculated as the ratio of AUMC(0-inf)/AUC (0-inf), where AUMC(0-inf) was the area under the first moment curve from the time zero to infinity. The volume of distribution at steady state (Vss) was estimated as CL*MRT. Half-life was calculated as In2/λz. The oral bioavailability (F) was calculated as the ratio of AUC(0-inf) following oral dosing to AUC(0-inf) following intravenous dosing. Descriptive statistics (mean and standard deviation) of the pharmacokinetic parameters were calculated using Microsoft Excel.
Blood samples were collected up to 24 and 72 hour after the intravenous and oral does, respectively. Plasma samples were analyzed using a LC-MS/MS assay which provided an LLOQ of 1 ng/mL for both analytes.

Male Sprague-Dawley rats = test: Locomotor activity after intranasal administration with and without CMC; format: in vivo; settings: 1.0 mg/kg
Sprague Dawley rats = test: Single-dose oral toxicity; format: in vivo; settings: rat; for Observable signs: single oral dose
Protocol: Three male and three female Sprague Dawley rats per group were given a single oral administration of L-lysine-d-amphetamine at 0.1, 1.0, 10, 60, 100 or 1000 mg/kg (Table 44).
Animals found dead, or sacrificed moribund were necropsied and discarded. A total of one animal/sex/group was necropsied upon scheduled or unscheduled death.

[2] = molecular target: T1, human recombinant dopamine transport binding sites (Homo sapiens, UniProt Q01959); test: Radioligand binding, dopamine transporter; settings: 10^−9 to 10^−5 M
T1 construct: purchased Novascreen, Hanover, Md

[3] = molecular target: T2, human recombinant norepinephrine transport binding sites (Homo sapiens, UniProt P23975); test: Radioligand binding, norepinephrine transporter; settings: 10^−9 to 10^−5 M
T2 construct: purchased Novascreen, Hanover, Md

[4] = Intranasal bioavailability in rats, plasma d-amphetamine by ELISA; settings: rat, 3 mg/kg
[5] = Kitchen tests: release of amphetamine by water, acid, base and heat; settings: heated to boiling for 20-60 minutes
[6] = male beagle dogs 1-3 and Mean, 30-min iv infusion, 2 mg/kg/h (free form), 2 mg/kg
[7] = male beagle dogs 1-3 and Mean, oral, 2 mg/kg (free form), 2 mg/kg
[8] = male, beagle, dog, plasma, iv, 1 mg/kg, male beagle dog, IV, 1 mg/kg d-amphetamine base, mean
[9] = male, beagle, dog, plasma, iv, 2 mg/kg, male beagle dogs 1-3 and Mean, 30-min iv infusion, 2 mg/kg/h (free form)
[10] = male, beagle, dog, plasma, po, 1 mg/kg, male beagle dog, oral, 1 mg/kg d-amphetamine base, mean

T1 sequence (Q01959 whole entry): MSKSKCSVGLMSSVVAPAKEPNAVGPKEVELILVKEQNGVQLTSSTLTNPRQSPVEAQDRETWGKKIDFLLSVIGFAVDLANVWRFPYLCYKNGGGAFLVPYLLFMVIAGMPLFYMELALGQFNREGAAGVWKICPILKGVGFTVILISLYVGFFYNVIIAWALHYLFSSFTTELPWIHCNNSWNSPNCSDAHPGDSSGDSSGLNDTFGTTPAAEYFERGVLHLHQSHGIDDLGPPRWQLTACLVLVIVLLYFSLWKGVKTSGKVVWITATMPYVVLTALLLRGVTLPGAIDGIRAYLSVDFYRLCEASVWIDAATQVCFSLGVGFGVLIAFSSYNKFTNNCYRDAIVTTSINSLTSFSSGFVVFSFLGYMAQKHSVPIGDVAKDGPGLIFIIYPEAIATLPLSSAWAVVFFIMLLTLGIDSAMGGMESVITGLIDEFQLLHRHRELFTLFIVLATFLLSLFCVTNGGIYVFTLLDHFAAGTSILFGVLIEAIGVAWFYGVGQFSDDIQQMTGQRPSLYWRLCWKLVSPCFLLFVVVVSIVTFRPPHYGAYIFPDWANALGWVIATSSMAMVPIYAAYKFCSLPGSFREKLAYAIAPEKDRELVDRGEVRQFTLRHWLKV
T2 sequence (P23975 whole entry): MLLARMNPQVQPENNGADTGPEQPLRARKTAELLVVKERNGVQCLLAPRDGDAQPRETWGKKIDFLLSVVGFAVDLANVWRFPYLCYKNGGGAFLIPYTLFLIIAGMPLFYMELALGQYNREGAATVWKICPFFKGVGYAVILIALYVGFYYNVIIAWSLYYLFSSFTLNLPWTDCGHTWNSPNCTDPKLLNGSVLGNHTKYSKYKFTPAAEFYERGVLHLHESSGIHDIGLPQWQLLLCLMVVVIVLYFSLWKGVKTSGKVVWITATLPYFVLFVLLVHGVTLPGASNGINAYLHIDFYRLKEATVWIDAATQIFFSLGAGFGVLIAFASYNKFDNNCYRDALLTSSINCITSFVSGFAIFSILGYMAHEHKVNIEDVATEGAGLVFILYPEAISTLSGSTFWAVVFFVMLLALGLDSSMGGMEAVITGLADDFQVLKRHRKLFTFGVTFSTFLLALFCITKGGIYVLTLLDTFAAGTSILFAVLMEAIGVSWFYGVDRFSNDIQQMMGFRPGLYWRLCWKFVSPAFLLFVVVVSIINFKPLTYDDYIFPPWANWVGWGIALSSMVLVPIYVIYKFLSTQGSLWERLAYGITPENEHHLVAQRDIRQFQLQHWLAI

SMILES: CC(Cc1ccccc1)NC(=O)C(N)CCCCN [L-lysine-d-amphetamine, 2,6-diaminohexanoic acid-(1-methyl-2-phenylethyl)-amide]
- Tmax ([1]; dog, plasma, male beagle dogs 1-3 and median, 30-min iv infusion, 2 mg/kg/h (free form), read-out: Tmax of L-lysine-d-amphetamine): 29.4 min
- Tmax ([1]; dog, plasma, male beagle dogs 1-3 and median, oral, 2 mg/kg (free form), read-out: Tmax of L-lysine-d-amphetamine): 30 min
- AUC(0-t) of L-lysine-d-amphetamine [1, 6]: 898.2 ng·h/mL
- AUC(inf) of L-lysine-d-amphetamine [1, 6]: 900.2 ng·h/mL and 1076.1 ng·h/mL
- CL of L-lysine-d-amphetamine [1, 6]: 2222 mL/h/kg and 1859 mL/h/kg
- Cmax of L-lysine-d-amphetamine [1, 6]: 1470.3 ng/mL
- MRT of L-lysine-d-amphetamine [1, 6]: 21.6 min and 19.2 min
- Vss of L-lysine-d-amphetamine [1, 6]: 807.4 mL/kg
- t1/2 of L-lysine-d-amphetamine [1, 6]: 43.2 min
- AUC(0-t) of L-lysine-d-amphetamine [1, 7]: 318.0 ng·h/mL
- AUC(inf) of L-lysine-d-amphetamine [1, 7]: 312.0 ng·h/mL and 277.1 ng·h/mL
- CL/F of L-lysine-d-amphetamine [1, 7]: 106.8 mL/min/kg and 120.3 mL/min/kg
- F of L-lysine-d-amphetamine [1, 7]: 34.3% and 34.0% and 30.8%
- MRT of L-lysine-d-amphetamine [1, 7]: 40.8 min
- t1/2 of L-lysine-d-amphetamine [1, 7]: 27 min and 14.4 min
- AUC(0-inf) [1, 8]: 964 ng·h/mL
- Cmax [1, 8]: 1650 ng/mL
- MRT [1, 8]: 19.8 min
- Vd [1, 8]: 0.689 L/kg
- half-life [1, 8]: 52.8 min
- Tmax ([1]; male, beagle, dog, plasma, iv, 1 mg/kg, read-out: Tmax of L-lysine-d-amphetamine (median)): 29.4 min
- AUC(0-t) ([1]; male, beagle, dog, plasma, iv, 2 mg/kg, male beagle dogs 1-3 and Mean, 30-min iv infusion, 2 mg/kg/h (free form), read-out: AUC(0-t) of L-lysine-d-amphetamine): 914 ng·h/mL
- AUC(0-inf) [1, 9]: 917 ng·h/mL
- clearance ([1]; male, beagle, dog, plasma, iv, 2 mg/kg, male beagle dogs 1-3 and Mean, 30-min iv infusion, 2 mg/kg/h (free form), read-out: CL of L-lysine-d-amphetamine (converted)): 36.4 mL/min/kg
- Cmax [1, 9]: 1650 ng/mL
- MRT [1, 9]: 18 min
- Vd [1, 9]: 0.656 L/kg
- half-life [1, 9]: 63 min
- AUC(0-inf) [1, 10]: 319 ng·h/mL
- CL/F ([1]; male, beagle, dog, plasma, po, 1 mg/kg, male beagle dog, oral, 1 mg/kg d-amphetamine base, mean, read-out: CL/F of L-lysine-d-amphetamine (converted)): 106 mL/min/kg
- Cmax [1, 10]: 328 ng/mL
- MRT [1, 10]: 48.6 min
- half-life [1, 10]: 23.4 min
- bioavailability ([1]; male, beagle, dog, plasma, po, 1 mg/kg, read-out: F (absolute oral bioavailability) of L-lysine-d-amphetamine): 33%
- Tmax ([1]; male, beagle, dog, plasma, po, 1 mg/kg, read-out: Tmax of L-lysine-d-amphetamine (median)): 30 min
- Percent d-amphetamine (Male Sprague-Dawley rats; activity above baseline relative to d-amphetamine): 35%
- Increase in activity over baseline compared to d-amphetamine dosed animals (Male Sprague-Dawley rats; rat, with CMC): 9%
- Deaths (Sprague Dawley rats; single oral 1000 mg/kg, 7 days): only one death occurred out of a group of six animals
- Observable signs (Sprague Dawley rats; Groups 1-3 (doses 0.1 to 1000 mg/kg in six groups)): no observable signs
- Observable signs (Sprague Dawley rats; Groups 4-6 (doses 0.1 to 1000 mg/kg in six groups)): increased motor activity within two hours post-dose
- Specific binding [2]: did not bind
- Specific binding [3]: did not bind
- Release of d-amphetamine into circulation [4]: did not release any significant amount of d-amphetamine
- amphetamine detected after treatment: Baking Powder [5]: 0%
- amphetamine detected after treatment: Baking Soda [5]: 0%
- amphetamine detected after treatment: Tap Water [5]: 0%
- amphetamine detected after treatment: Vinegar [5]: 0%
